{"source": "patent US5989583A", "about": "“Solid lipid compositions of lipophilic compounds for enhanced oral bioavailability” (Pharmos Ltd., priority 1996, dated 1999)", "origin": "cited, not measured here", "key": {"[1]": {"conditions": "for Water solubility (in words): water / aqueous solutions"}, "[2]": {"test_system": "patients with severe heart failure", "conditions": "40 patients with severe heart failure, long term treatment"}, "[3]": {"test_system": "periodontal disease", "conditions": "supplements containing CoQ10"}, "[4]": {"test_system": "cultured cerebellar neurons", "conditions": "age-related and excitotoxin-induced degeneration"}, "[5]": {"conditions": "20 mg THC in a sesame oil formulation"}}, "data": [{"smiles": "CCCCCc1cc(O)c2c(c1)OC(C)(C)c1ccc(C)cc1-2", "note": "[cannabinol]", "values": [{"measurement": "Water solubility (in words)", "setting": "[1]", "result": "a few micrograms/ml or less"}]}, {"smiles": "C=C(C)[C@@H]1CCC(C)=C[C@H]1c1c(O)cc(CCCCC)cc1O", "note": "[cannabidiol]", "values": [{"measurement": "Water solubility (in words)", "setting": "[1]", "result": "a few micrograms/ml or less"}]}, {"smiles": "CCCCCc1cc(O)c2c(c1)OC(C)(C)[C@@H]1CC=C(C)C[C@@H]21", "note": "[Δ^6 -THC, Δ^6 -tetrahydrocannabinol]", "values": [{"measurement": "Water solubility (in words)", "setting": "[1]", "result": "a few micrograms/ml or less"}]}, {"smiles": "COC1=C(OC)C(=O)C(C/C=C(\\C)CC/C=C(\\C)CC/C=C(\\C)CC/C=C(\\C)CC/C=C(\\C)CC/C=C(\\C)CC/C=C(\\C)CC/C=C(\\C)CC/C=C(\\C)CCC=C(C)C)=C(C)C1=O", "note": "[CoQ10, 2,3-dimethoxy-5-methyl-6-decaprenyl-1,4-benzoquinone]", "values": [{"measurement": "oral bioavailability / systemic availability", "result": "very low"}, {"measurement": "patients showing improvement in their condition", "setting": "[2]", "result": 69, "unit": "%"}, {"measurement": "Effect on periodontal disease", "setting": "[3]", "result": "the progress of the disease was not only stopped, but accelerated tissue healing was initiated as well"}, {"measurement": "Protection of neurons against degeneration", "setting": "[4]", "result": "protect cultured cerebellar neurons against age-related and excitotoxin-induced degeneration"}, {"measurement": "Water solubility (in words)", "setting": "[1]", "result": "practically insoluble in water"}]}, {"smiles": "CCCCCCC(C)(C)c1cc(O)c2c(c1)OC(C)(C)[C@H]1CC=C(CO)C[C@H]21", "note": "[Dexanabinol, (+)-(3S, 4S) -7-hydroxy-Δ^6-tetra hydrocannabinol-1,1-dimetylheptyl]", "values": [{"measurement": "oral bioavailability / systemic availability", "result": "poor oral bioavailability"}, {"measurement": "Water solubility", "setting": "[1]; water", "result": "less than 50 μg/ml"}]}, {"smiles": "CCCCCc1cc(O)c2c(c1)OC(C)(C)[C@@H]1CCC(C)=C[C@@H]21", "note": "[Δ^1 -THC, Δ^1 -tetrahydrocannabinol]", "values": [{"measurement": "Water solubility (in words)", "setting": "[1]", "result": "a few micrograms/ml or less"}]}, {"smiles": "CCCCCc1cc(O)c2c(c1)OC(C)(C)[C@@H]1CCC(C)=C[C@@H]21", "note": "[THC, tetrahydrocannabinol]", "values": [{"measurement": "maximal plasma levels after oral dosing", "setting": "[5]", "result": "around 10 ng/ml"}]}]}
